Test results taken from patent publication US10294202B2, “Pyrrolidinones as herbicides” (FMC Corporation, priority 2013, dated 2019).
Several values for one entry are separate records, joined by “and”; a condition that tells them apart may be missing. Identical values can stand only once.

Legend:
soybean (GLXMA) = assay: Test H preemergence mixture test (Colby); format: in vivo, Glycine max; details: applied alone, 21 d, mean of three replicates, scale 0-100
Source text: (§1) Colby's Equation was used to determine the herbicidal effects expected from the mixtures. Colby's Equation (Colby, S. R. “Calculating Synergistic and Antagonistic Responses of Herbicide Combinations,” Weeds, 15(1), pp 20-22 (1967)) calculates the expected additive effect of herbicidal mixtures and for two active ingredients is of the form: Pa+b=Pa+Pb−(PaPb/100)
(§2) where • Pa+b is the percentage effect of the mixture expected from additive contribution of the individual components: • Pa is the observed percentage effect of the first active ingredient at the same use rate as in the mixture, and • Pb is the observed percentage effect of the second active ingredient at the same use rate as in the mixture. In the following Tables, rates are shown in grams of active ingredient per hectare (g a.i./ha); “Obsd.” is the observed effect. “Exp.” is the expected effect calculated from Colby's Equation.
(§3) This test evaluated the effect of mixtures of compound 80 with several commercial herbicides on four plant species. Seeds of plant species selected from corn (ZEAMD, Zea mays), soybean (GLXMA, Glycine max), waterhemp (common waterhemp, AMATA, Amaranthus rudis), and giant foxtail (SETFA, Setaria faberii) were planted into a silt loam soil and treated preemergence with test chemicals formulated in a non-phytotoxic solvent mixture which included a surfactant and applied using a volume of 281 L/ha. Each treatment was replicated three times. Treated plants and controls were maintained in a greenhouse using supplemental lighting to maintain a photoperiod of about 16 h; daytime and nighttime temperatures were about 24-30° C. and 19-21° C., respectively. Nutrients were applied using a balanced fertilizer applied through the watering system. At 21 d after treatment, all species were compared to controls and visually evaluated. Plant response ratings were calculated as the means of the three replicates, are summarized in Tables H1 through H5, and are based on a scale of 0 to 100 where 0 is no effect and 100 is complete control. A dash (-) response means no test result. The Expected (Exp.) results were calculated using Colby's Equation as described for Test G above.

corn (ZEAMD) = assay: Test H preemergence mixture test (Colby); format: in vivo, Zea mays; details: applied alone, 21 d, mean of three replicates, scale 0-100
Source text: as §1, §2, §3

giant foxtail (SETFA) = assay: Test H preemergence mixture test (Colby); format: in vivo, Setaria faberii; details: applied alone, 21 d, mean of three replicates, scale 0-100
Source text: as §1, §2, §3

waterhemp (AMATA) = assay: Test H preemergence mixture test (Colby); format: in vivo, Amaranthus rudis; details: applied alone, 21 d, mean of three replicates, scale 0-100
Source text: as §1, §2, §3

barnyardgrass (ECHCG) = assay: Test G paddy mixture test (Colby); format: in vivo, Echinochloa crus-galli; details: applied alone, 20 g a.i./ha; 14 d; scale 0-100
Method: (§4) Seeds of small-flower umbrella […], Cyperus difformis) and […], Heteranthera limosa) were sown on the soil surface in two separate quadrants of 11-cm (4-inch) tubs filled with steam pasteurized Tama soil. Simultaneously, plantings of […], Echinochloa crus-galli) and transplanted japonica rice (ORYSA, Oryza sativa) were established in separate “plug” flats. […] Herbicide application timing was targeted at the 2.0 to 2.5 leaf stage and the plants were treated with test chemicals formulated in a non-phytotoxic solvent. Treated plants and controls were maintained in a greenhouse for 14 d, after which time all species were compared to controls and visually evaluated. Plant response ratings are summarized in Tables G1 through G12, and are based on a scale of 0 to 100 where 0 is no effect and 100 is complete control. A dash (-) response means no test result. Colby's Equation was used to determine the herbicidal effects expected from the mixtures. […] “Exp.” is the expected effect calculated from Colby's Equation.

[1] = tested on: small-flower umbrella sedge (CYPDI); assay: Test G paddy mixture test (Colby); format: in vivo, Cyperus difformis; details: applied alone, 20 g a.i./ha; 14 d; scale 0-100
Method: as §4

ducksalad (HETLI) = assay: Test G paddy mixture test (Colby); format: in vivo, Heteranthera limosa; details: applied alone, 20 g a.i./ha; 14 d; scale 0-100
Method: as §4

| Compound | GLXMA Obsd. (soybean (GLXMA); 62 g a.i./ha) | GLXMA Obsd. (soybean (GLXMA); 125 g a.i./ha) | ZEAMD Obsd. (corn (ZEAMD); 62 g a.i./ha) | ZEAMD Obsd. (corn (ZEAMD); 125 g a.i./ha) | SETFA Obsd. (giant foxtail (SETFA); 62 g a.i./ha) | SETFA Obsd. (giant foxtail (SETFA); 125 g a.i./ha) | AMATA Obsd. (waterhemp (AMATA); 62 g a.i./ha) | AMATA Obsd. (waterhemp (AMATA); 125 g a.i./ha) | GLXMA Obsd. (soybean (GLXMA); 31 g a.i./ha) | ZEAMD Obsd. (corn (ZEAMD); 31 g a.i./ha) | SETFA Obsd. (giant foxtail (SETFA); 31 g a.i./ha) | AMATA Obsd. (waterhemp (AMATA); 31 g a.i./ha) | GLXMA Obsd. (soybean (GLXMA); 1 g a.i./ha) | ZEAMD Obsd. (corn (ZEAMD); 1 g a.i./ha) | SETFA Obsd. (giant foxtail (SETFA); 1 g a.i./ha) | AMATA Obsd. (waterhemp (AMATA); 1 g a.i./ha) | ECHCG Obsd. (barnyardgrass (ECHCG)) | CYPDI Obsd. [1] | HETLI Obsd. (ducksalad (HETLI)) |
| --- | --- | --- | --- | --- | --- | --- | --- | --- | --- | --- | --- | --- | --- | --- | --- | --- | --- | --- | --- |
| CCNc1nc(Cl)nc(NC(C)C)n1 [Atrazine] | 13 | 48 | 0 | 0 | 0 | 8 | 33 | 90 | – | – | – | – | – | – | – | – | – | – | – |
| CCc1cccc(C)c1N(C(=O)CCl)[C@@H](C)COC [S-metolachlor] | – | 15 | – | 20 | – | 99 | – | 85 | 18 | 13 | 73 | 0 | – | – | – | – | – | – | – |
| CCOC(=O)c1ccccc1S(=O)(=O)NC(=O)Nc1nc(Cl)cc(OC)n1 [Chlorimuron-ethyl] | – | – | – | – | – | – | – | – | 22 | 73 | 47 | 89 | 0 | 22 | 0 | 47 | – | – | – |
| COC(=O)c1ccccc1CS(=O)(=O)NC(=O)Nc1nc(OC)cc(OC)n1 [Bensulfuron-methyl] | – | – | – | – | – | – | – | – | – | – | – | – | – | – | – | – | 65 | 100 and 98 | 100 |
| CC(C)N(C)S(=O)(=O)NC(=O)c1cc(-n2c(=O)cc(C(F)(F)F)n(C)c2=O)c(F)cc1Cl [Saflufenacil] | – | – | – | – | – | – | – | – | 13 | 0 | 23 | 83 | 0 | 20 | 0 | 0 | – | – | – |
